# Measured values as given in ChEMBL document CHEMBL1255477, “In vitro properties of BAL30072, a novel siderophore sulfactam with activity against multiresistant gram-negative bacilli” (Antimicrob Agents Chemother, 2010).
# Experiments:
# [1] = test system: Acinetobacter baumannii; assay: Antimicrobial activity against Acinetobacter baumannii HPA74510 selected after 4 times MIC compound exposure; format: functional
# [2] = test system: Pseudomonas aeruginosa; assay: Antimicrobial activity against Pseudomonas aeruginosa HPA10586 by broth dilution method; format: functional
# [3] = test system: Pseudomonas aeruginosa; assay: Microbicidal activity against Pseudomonas aeruginosa BA selected after 4 times MIC compound exposure; format: functional
# [4] = test system: Pseudomonas aeruginosa; assay: Antimicrobial activity against Pseudomonas aeruginosa BA(C2-107) mutant assessed as doubling time; format: functional
# [5] = test system: Enterobacter cloacae; assay: Antimicrobial activity against Enterobacter cloacae S9369 by broth dilution method; format: functional
# [6] = test system: Pseudomonas aeruginosa; assay: Antimicrobial activity against Pseudomonas aeruginosa BA assessed as doubling time; format: functional
# [7] = test system: Acinetobacter baumannii; assay: Antimicrobial activity against Acinetobacter baumannii HPA74510 by broth dilution method; format: functional
# [8] = test system: Stenotrophomonas maltophilia; assay: Microbicidal activity against Stenotrophomonas maltophilia 1AC736 selected after 2 times MIC compound exposure; format: functional
# [9] = Inhibition of beta-lactamase VIM-1
# [10] = Inhibition of Escherichia coli Penicillin-binding protein 1A
# [11] = test system: Acinetobacter baumannii; assay: Antimicrobial activity against Acinetobacter baumannii HPA74510 assessed as highest concentration at which colonies reappeared; format: functional
# [12] = test system: Enterobacter cloacae; assay: Antimicrobial activity against Enterobacter cloacae S4741B assessed as log reduction in colony count after 24 hrs; format: functional
# [13] = target: AmpC (Escherichia coli, UniProt Q83TT7); assay: Inhibition of Escherichia coli ATCC 25922 AmpC
# Sequence of AmpC (Q83TT7 whole entry): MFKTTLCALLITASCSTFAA
# [14] = test system: Pseudomonas aeruginosa; assay: Microbicidal activity against Pseudomonas aeruginosa HPA10586 selected after 8 times MIC compound exposure; format: functional
# [15] = test system: Pseudomonas aeruginosa; assay: Microbicidal activity against Pseudomonas aeruginosa 527 selected after 4 times MIC compound exposure; format: functional
# [16] = Inhibition of Beta-lactamase IMP1
# [17] = test system: Stenotrophomonas maltophilia; assay: Microbicidal activity against Stenotrophomonas maltophilia 1AC736 selected after MIC of compound exposure; format: functional
# [18] = test system: Enterobacter cloacae; assay: Antimicrobial activity against Enterobacter cloacae S9369 assessed as log reduction in colony count after 24 hrs; format: functional
# [19] = test system: Acinetobacter baumannii; assay: Microbicidal activity against Acinetobacter baumannii HPA74510 selected after 4 times MIC compound exposure; format: functional
# [20] = Inhibition of Escherichia coli Penicillin-binding protein 3
# [21] = test system: Escherichia coli; assay: Antimicrobial activity against Escherichia coli W3110 assessed as highest concentration at which colonies reappeared; format: functional
smiles,measurement,setting,value
C[C@@H](O)[C@H]1C(=O)N2C(C(=O)O)=C(S[C@@H]3CN[C@H](C(=O)N(C)C)C3)[C@H](C)[C@H]12 [MEROPENEM],MIC,[1],> 128 µg/mL
same,MIC,[2],> 128 µg/mL
same,MBC,[3],2 µg/mL
same,Time,[4],4.1 h
same,MIC,[5],4 µg/mL
same,Time,[6],1.5 h
same,MIC,[7],1 µg/mL
same,MBC,[8],16 µg/mL
CC1(C)[C@H](NC(=O)/C(=N\OCc2cc(=O)c(O)cn2O)c2csc(N)n2)C(=O)N1OS(=O)(=O)O (stereo in doubt),IC50,[9],> 500 µM
same,IC50,[10],3.9 µM
same,Activity,[11],4 mg/L
same,FC,[12],3
same,IC50,[13],0.5 µM
same,MBC,[14],8 µg/mL
same,MBC,[15],8 µg/mL
same,IC50,[16],> 2500 µM
same,MBC,[17],0.125 µg/mL
same,FC,[18],3
same,MBC,[19],0.5 µg/mL
same,IC50,[20],0.048 µM
same,Activity,[21],1 mg/L
